Laboratory results: article PMC11277489, “Novel Piperazine Derivatives of Vindoline as Anticancer Agents” (International Journal of Molecular Sciences, 2024)

Tests used:
[1] = system: NCI-H23; assay: NCI60 one-dose screen (10 μM), Non-small Cell Lung Cancer; assay type: cell-based; details: Homo sapiens; 10 μM; NCI-H23, Non-small Cell Lung Cancer; read-out: Growth percent rate
[2] = system: SN12C; assay: NCI60 one-dose screen (10 μM), Renal Cancer; assay type: cell-based; details: Homo sapiens, 10 μM, Renal Cancer, read-out: Growth percent rate
[3] = system: SK-MEL-5; assay: NCI60 one-dose screen (10 μM), Melanoma; assay type: cell-based, human; details: Homo sapiens; 10 μM; SK-MEL-5, Melanoma; read-out: Growth percent rate
[4] = system: 786–0; assay: NCI60 one-dose screen (10 μM), Renal Cancer; assay type: cell-based; details: Homo sapiens; 10 μM; 786-0, Renal Cancer; read-out: Growth percent rate
[5] = system: COLO 205; assay: NCI60 one-dose screen (10 μM), Colon Cancer; assay type: cell-based, human; details: Homo sapiens; 10 μM; COLO 205, Colon Cancer; read-out: Growth percent rate
[6] = system: IGROV1; assay: NCI60 one-dose screen (10 μM), Ovarian Cancer; assay type: cell-based; details: Homo sapiens, IGROV-1; 10 μM; IGROV1, Ovarian Cancer; read-out: Growth percent rate
[7] = system: NCI-H522; assay: NCI60 one-dose screen (10 μM), Non-small Cell Lung Cancer; assay type: cell-based; details: Homo sapiens; 10 μM; NCI-H522, Non-small Cell Lung Cancer; read-out: Growth percent rate
[8] = system: DU-145; assay: NCI60 one-dose screen (10 μM), Prostate Cancer; assay type: cell-based; details: Homo sapiens; 10 μM; DU-145, Prostate Cancer; read-out: Growth percent rate
[9] = system: A498; assay: NCI60 one-dose screen (10 μM), Renal Cancer; assay type: cell-based; details: Homo sapiens; 10 μM; A498, Renal Cancer; read-out: Growth percent rate
[10] = system: CCRF-CEM; assay: NCI60 one-dose screen (10 μM), Leukemia; assay type: cell-based; details: Homo sapiens, 10 μM, Leukemia, read-out: Growth percent rate
[11] = system: MOLT-4; assay: NCI60 one-dose screen (10 μM), Leukemia; assay type: cell-based, human; details: Homo sapiens; 10 μM; MOLT-4, Leukemia; read-out: Growth percent rate
[12] = system: K-562; assay: NCI60 one-dose screen (10 μM), Leukemia; assay type: cell-based; details: Homo sapiens, K562; 10 μM; K-562, Leukemia; read-out: Growth percent rate
[13] = system: HCT-15; assay: NCI60 one-dose screen (10 μM), Colon Cancer; assay type: cell-based; details: Homo sapiens; 10 μM; HCT-15, Colon Cancer; read-out: Growth percent rate
[14] = system: HS 578T; assay: NCI60 one-dose screen (10 μM), Breast Cancer; assay type: cell-based; details: Homo sapiens; 10 μM; HS 578T, Breast Cancer; read-out: Growth percent rate
[15] = system: EKVX; assay: NCI60 one-dose screen (10 μM), Non-small Cell Lung Cancer; assay type: cell-based; details: Homo sapiens, 10 μM, Non-small Cell Lung Cancer, read-out: Growth percent rate
[16] = system: HOP-62; assay: as above; assay type: cell-based; details: Homo sapiens; 10 μM; HOP-62, Non-small Cell Lung Cancer; read-out: Growth percent rate
[17] = system: HCT-116; assay: NCI60 one-dose screen (10 μM), Colon Cancer; assay type: cell-based; details: Homo sapiens; 10 μM; HCT-116, Colon Cancer; read-out: Growth percent rate
[18] = system: NCI-H322M; assay: NCI60 one-dose screen (10 μM), Non-small Cell Lung Cancer; assay type: cell-based; details: Homo sapiens, 10 μM, Non-small Cell Lung Cancer, read-out: Growth percent rate
[19] = system: MCF7; assay: NCI60 one-dose screen (10 μM), Breast Cancer; assay type: cell-based; details: Homo sapiens; 10 μM; MCF7, Breast Cancer; read-out: Growth percent rate
[20] = system: OVCAR-4; assay: NCI60 one-dose screen (10 μM), Ovarian Cancer; assay type: cell-based; details: Homo sapiens; 10 μM; OVCAR-4, Ovarian Cancer; read-out: Growth percent rate
[21] = system: SNB-75; assay: NCI60 one-dose screen (10 μM), CNS Cancer; assay type: cell-based, human; details: Homo sapiens; 10 μM; SNB-75, CNS Cancer; read-out: Growth percent rate
[22] = system: A549/ATCC; assay: NCI60 one-dose screen (10 μM), Non-small Cell Lung Cancer; assay type: cell-based; details: Homo sapiens; 10 μM; A549/ATCC, Non-small Cell Lung Cancer; read-out: Growth percent rate
[23] = system: RPMI-8226; assay: NCI60 one-dose screen (10 μM), Leukemia; assay type: cell-based; details: Homo sapiens; 10 μM; RPMI-8226, Leukemia; read-out: Growth percent rate
[24] = system: HCC-2998; assay: NCI60 one-dose screen (10 μM), Colon Cancer; assay type: cell-based; details: Homo sapiens; 10 μM; HCC-2998, Colon Cancer; read-out: Growth percent rate
[25] = system: U251; assay: NCI60 one-dose screen (10 μM), CNS Cancer; assay type: cell-based; details: Homo sapiens, U-251; 10 μM; U251, CNS Cancer; read-out: Growth percent rate
[26] = system: SF-268; assay: NCI60 one-dose screen (10 μM), CNS Cancer; assay type: cell-based; details: Homo sapiens; 10 μM; SF-268, CNS Cancer; read-out: Growth percent rate
[27] = system: SK-MEL-28; assay: NCI60 one-dose screen (10 μM), Melanoma; assay type: cell-based; details: Homo sapiens; 10 μM; SK-MEL-28, Melanoma; read-out: Growth percent rate
[28] = system: NCI-H460; assay: NCI60 one-dose screen (10 μM), Non-small Cell Lung Cancer; assay type: cell-based; details: Homo sapiens; 10 μM; NCI-H460, Non-small Cell Lung Cancer; read-out: Growth percent rate
[29] = system: 60 human tumor cell lines (NCI60); assay: NCI60 one-dose screen (10 μM), whole panel; assay type: cell-based; details: 10 μM; mean over 60 human cancer cell lines; read-out: Growth percent rate, Mean
[30] = system: OVCAR-3; assay: NCI60 one-dose screen (10 μM), Ovarian Cancer; assay type: cell-based; details: Homo sapiens; 10 μM; OVCAR-3, Ovarian Cancer; read-out: Growth percent rate
[31] = system: SW-620; assay: NCI60 one-dose screen (10 μM), Colon Cancer; assay type: cell-based; details: Homo sapiens; 10 μM; SW-620, Colon Cancer; read-out: Growth percent rate
[32] = system: CAKI-1; assay: NCI60 one-dose screen (10 μM), Renal Cancer; assay type: cell-based; details: Homo sapiens; 10 μM; CAKI-1, Renal Cancer; read-out: Growth percent rate
[33] = system: UACC-257; assay: NCI60 one-dose screen (10 μM), Melanoma; assay type: cell-based; details: Homo sapiens; 10 μM; UACC-257, Melanoma; read-out: Growth percent rate
[34] = system: M14; assay: NCI60 one-dose screen (10 μM), Melanoma; assay type: cell-based; details: Homo sapiens; 10 μM; M14, Melanoma; read-out: Growth percent rate
[35] = system: RXF 393; assay: NCI60 one-dose screen (10 μM), Renal Cancer; assay type: cell-based, human; details: Homo sapiens; 10 μM; RXF 393, Renal Cancer; read-out: Growth percent rate
[36] = system: ACHN; assay: NCI60 one-dose screen (10 μM), Renal Cancer; assay type: cell-based; details: Homo sapiens, 10 μM, Renal Cancer, read-out: Growth percent rate
[37] = system: HL-60(TB); assay: NCI60 one-dose screen (10 μM), Leukemia; assay type: cell-based; details: Homo sapiens; 10 μM; HL-60(TB), Leukemia; read-out: Growth percent rate
[38] = system: SF-539; assay: NCI60 one-dose screen (10 μM), CNS Cancer; assay type: cell-based, human; details: Homo sapiens; 10 μM; SF-539, CNS Cancer; read-out: Growth percent rate
[39] = system: MDA-MB-435; assay: NCI60 one-dose screen (10 μM), Melanoma; assay type: cell-based; details: Homo sapiens; 10 μM; MDA-MB-435, Melanoma; read-out: Growth percent rate
[40] = system: HT29; assay: NCI60 one-dose screen (10 μM), Colon Cancer; assay type: cell-based; details: Homo sapiens, HT-29; 10 μM; HT29, Colon Cancer; read-out: Growth percent rate
[41] = system: OVCAR-8; assay: NCI60 one-dose screen (10 μM), Ovarian Cancer; assay type: cell-based; details: Homo sapiens; 10 μM; OVCAR-8, Ovarian Cancer; read-out: Growth percent rate
[42] = system: SK-MEL-2; assay: NCI60 one-dose screen (10 μM), Melanoma; assay type: cell-based; details: Homo sapiens; 10 μM; SK-MEL-2, Melanoma; read-out: Growth percent rate

**Q.** For `CC[C@]12C=CCN3CC[C@@]4(c5ccc(OC)cc5N(C)[C@H]4[C@@](O)(C(=O)OC)[C@@H]1OC(=O)CCCN1CCN(Cc4ccc(F)cc4)CC1)[C@@H]32` [Compound 24], which activity at 10 µM [1] is on record?
**A.** The activity at 10 µM was 74.4%.

**Q.** And the activity at 10 µM [2]?
**A.** The activity at 10 µM was 43.9%.

**Q.** What about the activity at 10 µM [3] of the same compound?
**A.** The activity at 10 µM was -98.3%.

**Q.** And the activity at 10 µM [4]?
**A.** The activity at 10 µM was 31.4%.

**Q.** And the activity at 10 µM [5]?
**A.** Its activity at 10 µM is -59.6%.

**Q.** And the activity at 10 µM [6]?
**A.** The activity at 10 µM was 25.1%.

**Q.** And the activity at 10 µM [7]?
**A.** The activity at 10 µM was 27.3%.

**Q.** And the activity at 10 µM [8]?
**A.** Its activity at 10 µM is 39.5%.

**Q.** What about the activity at 10 µM [9] of the same compound?
**A.** Its activity at 10 µM is 58.3%.

**Q.** What about the activity at 10 µM [10] of the same compound?
**A.** The activity at 10 µM was 12.7%.

**Q.** What about the activity at 10 µM [11] of the same compound?
**A.** The activity at 10 µM was 6.28%.

**Q.** What about the activity at 10 µM [12] of the same compound?
**A.** The activity at 10 µM was 0.4%.

**Q.** What about the activity at 10 µM [13] of the same compound?
**A.** Its activity at 10 µM is 15.7%.

**Q.** What about the activity at 10 µM [14] of the same compound?
**A.** The activity at 10 µM was 56.4%.

**Q.** What about the activity at 10 µM [15] of the same compound?
**A.** The activity at 10 µM was 40.3%.

**Q.** And the activity at 10 µM [16]?
**A.** Its activity at 10 µM is 70.1%.

**Q.** What about the activity at 10 µM [17] of the same compound?
**A.** Its activity at 10 µM is 24.1%.

**Q.** And the activity at 10 µM [18]?
**A.** The activity at 10 µM was 71.7%.

**Q.** And the activity at 10 µM [19]?
**A.** The activity at 10 µM was 6.31%.

**Q.** What about the activity at 10 µM [20] of the same compound?
**A.** The activity at 10 µM was 33%.

**Q.** And the activity at 10 µM [21]?
**A.** The activity at 10 µM was -0.13%.

**Q.** What about the activity at 10 µM [22] of the same compound?
**A.** Its activity at 10 µM is 51.2%.

**Q.** What about the activity at 10 µM [23] of the same compound?
**A.** Its activity at 10 µM is 20.1%.

**Q.** What about the activity at 10 µM [24] of the same compound?
**A.** The activity at 10 µM was -62.4%.

**Q.** What about the activity at 10 µM [25] of the same compound?
**A.** The activity at 10 µM was 40.3%.

**Q.** What about the activity at 10 µM [26] of the same compound?
**A.** Its activity at 10 µM is 42.5%.

**Q.** What about the activity at 10 µM [27] of the same compound?
**A.** Its activity at 10 µM is -45.3%.

**Q.** What about the activity at 10 µM [28] of the same compound?
**A.** Its activity at 10 µM is 30.6%.

**Q.** What about the activity at 10 µM [29] of the same compound?
**A.** The activity at 10 µM was 20.4%.

**Q.** And the activity at 10 µM [30]?
**A.** The activity at 10 µM was 50.6%.

**Q.** What about the activity at 10 µM [31] of the same compound?
**A.** The activity at 10 µM was 64.3%.

**Q.** What about the activity at 10 µM [32] of the same compound?
**A.** Its activity at 10 µM is 5.13%.

**Q.** What about the activity at 10 µM [33] of the same compound?
**A.** Its activity at 10 µM is -72.7%.

**Q.** And the activity at 10 µM [34]?
**A.** The activity at 10 µM was -77.9%.

**Q.** And the activity at 10 µM [35]?
**A.** Its activity at 10 µM is -8.13%.

**Q.** What about the activity at 10 µM [36] of the same compound?
**A.** The activity at 10 µM was 33.7%.

**Q.** What about the activity at 10 µM [37] of the same compound?
**A.** Its activity at 10 µM is 7.68%.

**Q.** And the activity at 10 µM [38]?
**A.** The activity at 10 µM was 14.7%.

**Q.** And the activity at 10 µM [39]?
**A.** Its activity at 10 µM is 38.7%.

**Q.** And the activity at 10 µM [40]?
**A.** The activity at 10 µM was 1.44%.

**Q.** And the activity at 10 µM [41]?
**A.** The activity at 10 µM was 66%.

**Q.** And the activity at 10 µM [42]?
**A.** The activity at 10 µM was -26.1%.
